Where two headings read alike, the source gives them in different places.
Biological target: T1, human AR (Homo sapiens, UniProt P10275)
T1 construct: expressed in transfected cells; host or cells: COS-1 cells
T1 sequence (P10275 1-920): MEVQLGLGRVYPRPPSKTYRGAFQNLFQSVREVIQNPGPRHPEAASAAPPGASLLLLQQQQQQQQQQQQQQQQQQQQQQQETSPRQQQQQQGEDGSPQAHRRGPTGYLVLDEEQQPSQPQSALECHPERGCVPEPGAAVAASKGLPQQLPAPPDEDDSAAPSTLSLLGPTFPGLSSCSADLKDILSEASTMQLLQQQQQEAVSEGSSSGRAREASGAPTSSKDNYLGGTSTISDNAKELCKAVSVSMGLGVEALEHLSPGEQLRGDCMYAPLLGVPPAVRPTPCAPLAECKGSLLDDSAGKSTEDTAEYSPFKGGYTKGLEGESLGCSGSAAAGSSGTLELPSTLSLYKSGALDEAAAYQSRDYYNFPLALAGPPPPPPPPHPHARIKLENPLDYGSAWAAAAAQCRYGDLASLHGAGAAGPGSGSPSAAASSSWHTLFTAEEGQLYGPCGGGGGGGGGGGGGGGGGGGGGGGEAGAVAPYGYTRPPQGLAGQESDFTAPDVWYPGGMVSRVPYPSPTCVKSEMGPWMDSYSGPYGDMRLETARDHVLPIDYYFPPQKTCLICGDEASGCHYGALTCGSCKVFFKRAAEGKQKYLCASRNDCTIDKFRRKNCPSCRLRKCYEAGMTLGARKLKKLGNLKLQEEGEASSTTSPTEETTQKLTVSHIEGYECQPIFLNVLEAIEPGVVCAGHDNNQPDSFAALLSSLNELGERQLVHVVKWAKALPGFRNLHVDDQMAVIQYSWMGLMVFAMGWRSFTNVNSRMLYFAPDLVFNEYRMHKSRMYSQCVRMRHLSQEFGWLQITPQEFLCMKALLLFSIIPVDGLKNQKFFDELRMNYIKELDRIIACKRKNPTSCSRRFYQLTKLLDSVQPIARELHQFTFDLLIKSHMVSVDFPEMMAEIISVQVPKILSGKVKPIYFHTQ
Experiment: IR Binding Assay: whole cell competitive binding of test compounds against 3H-DHT in COS-1 cells transfected with pRShAR
Outline: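 COS-1 cells transfected with pRShAR plus β-Gal reporter, serum-starved 24 h, then exposed to 1 nM ³H-DHT with compounds at 10^−10 to 10^−6 M for 3 h at 37 °C. Bound ³H-DHT counted in lysates, normalized to β-Gal. IC50 from log-logit plot; Ki via Cheng-Prusoff using Kd from Scatchard saturation analysis.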

[1] = competition with 1 nM 3H-DHT, transfected COS-1 cells, 3 h at 37° C., Cheng-Prusoff from IC50, read-out: Ki

| Structure (SMILES) | Ki | Ki [1] |
| --- | --- | --- |
| Cc1c(C(F)(F)F)n(CC(O)C(F)(F)F)c2ccc3[nH]c(=O)cc(Cl)c3c12 (racemic) [Compound 233, (±)-9-Chloro-1-methyl-3-(3,3,3-trifluoro-2-hydroxypropyl)-2-trifluoromethyl-3,6-dihydropyrrolo[3,2-f]quinolin-7-one] | < 5 nM | – |
| CC1c2c(ccc3[nH]c(=O)cc(Cl)c23)NC1c1ccccc1 (racemic) [Compound 172, (±)-9-Chloro-1-methyl-2-phenyl-1,2,3,6-tetrahydro-pyrrolo[3,2-f]quinolin-7-one] | – | > 10 nM |
| Cc1c(-c2ccccc2)n(CCC(F)(F)F)c2ccc3[nH]c(=O)cc(Cl)c3c12 [Compound 217, 9-Chloro-1-methyl-2-phenyl-3-(3,3,3-trifluoropropyl)-3,6-dihydropyrrolo[3,2-f]-quinolin-7-one] | < 5 nM | – |
| CCc1c(C)c2c3c(Cl)cc(=O)[nH]c3ccc2n1CC(F)(F)Cl [Compound 222, 9-Chloro-3-(2-chloro-2,2-difluoroethyl)-2-ethyl-1-methyl-3,6-dihydro-pyrrolo[3,2-f]-quinolin-7-one] | < 5 nM | – |
| CCC1C(C)c2c(ccc3[nH]c(=O)cc(Cl)c23)N1CC (racemic) [Compound 166, (±)-9-Chloro-2,3-diethyl-1-methyl-1,2,3,6-tetrahydro-pyrrolo[3,2-f]quinolin-7-one] | > 10 nM | – |
| Cc1c(-c2ccc(F)cc2F)n(CC(F)(F)F)c2ccc3[nH]c(=O)cc(Cl)c3c12 [Compound 200, 9-Chloro-2-(2,4-difluorophenyl)-1-methyl-3-(2,2,2-trifluoroethyl)-3,6-dihydro-pyrrolo[3,2-f]-quinolin-7-one] | < 5 nM | – |
| Cc1c(-c2ccccn2)n(CC(F)(F)C(F)(F)F)c2ccc3[nH]c(=O)cc(Cl)c3c12 [Compound 265, 9-Chloro-1-methyl-3-(2,2,3,3,3-pentafluoropropyl)-2-(2-pyridyl)-3,6-dihydro-pyrrolo[3,2-f]quinolin-7-one] | < 5 nM | – |
| Cc1c(-c2ccc(Cl)cc2)n(CC(F)(F)F)c2ccc3[nH]c(=O)cc(Cl)c3c12 [Compound 206, 9-Chloro-2(4-chlorophenyl)-1-methyl-3-(2,2,2-trifluoroethyl)-3,6-dihydro-pyrrolo[3,2-f]quinolin-7-one] | – | > 10 nM |
| Cc1c(-c2cccc(C(F)(F)F)c2)n(CC(F)(F)F)c2ccc3[nH]c(=O)cc(Cl)c3c12 [Compound 201, 9-Chloro-1-methyl-2-(3-trifluoromethylphenyl)-3-(2,2,2-trifluoroethyl)-3,6-dihydro-pyrrolo[3,2-f]-quinolin-7-one] | > 10 nM | – |
| CC1c2c(ccc3[nH]c(=O)cc(C(F)(F)F)c23)N(CCCC(F)(F)F)C1C (racemic) [Compound 182, (±)-1,2-Dimethyl-3-(4,4,4-trifluorobutyl)-9-trifluoromethyl-1,2,3,6-tetrahydro-pyrrolo[3,2-f]quinolin-7-one] | < 5 nM | – |
| CCN1c2ccc3[nH]c(=O)cc(Cl)c3c2C(C)C1C (racemic) [Compound 135, (±)-9-Chloro-1,2-dimethyl-3-ethyl-1,2,3,6-tetrahydro-pyrrolo[3,2-f]quinolin-7-one] | 5 to 10 nM | – |
| Cc1c(-c2cccc(Br)c2)n(CC(F)(F)F)c2ccc3[nH]c(=O)cc(Cl)c3c12 [Compound 198, 2-(3-Bromophenyl)-9-Chloro-1-methyl-3-(2,2,2-trifluoroethyl)-3,6-dihydro-pyrrolo[3,2-f]-quinolin-7-one] | > 10 nM | – |
| CC1c2c(ccc3[nH]c(=O)cc(Cl)c23)N(CC(F)(F)F)C1c1ccc(C(F)(F)F)cc1 (racemic) [Compound 147, (±)-9-Chloro-1-methyl-2-(4-trifluoromethyl-phenyl)-3-(2,2,2-trifluoroethyl)-1,2,3,6-tetrahydro-pyrrolo[3,2-f]quinolin-7-one] | > 10 nM | – |
| Cc1c(-c2ncco2)n(CC(F)(F)C(F)(F)F)c2ccc3[nH]c(=O)cc(Cl)c3c12 [Compound 266, 9-Chloro-1-methyl-2-(oxazol-2-yl)-3-(2,2,3,3,3-pentafluoropropyl)-3,6-dihydro-pyrrolo[3,2-f]quinolin-7-one] | < 5 nM | – |
| CCOC(=O)c1[nH]c2ccc3[nH]c(=O)cc(Cl)c3c2c1C [Compound 111, 9-Chloro-1-methyl-7-oxo-6,7-dihydro-3H-pyrrolo[3,2-f]quinoline-2-carboxylic acid ethyl ester] | – | > 10 nM |
| CC1c2c(ccc3[nH]c(=O)cc(Cl)c23)N(CC(F)(F)C(F)(F)C(F)(F)F)C1C (racemic) [Compound 168, (±)-9-Chloro-1,2-dimethyl-3-(2,2,3,3,4,4,4-heptafluorobutyl)-1,2,3,6-tetrahydro-pyrrolo[3,2-f]quinolin-7-one] | > 10 nM | – |
| COc1ccc(-c2c(C)c3c4c(Cl)cc(=O)[nH]c4ccc3n2CC(F)(F)F)cc1 [Compound 197, 9-Chloro-2-(4-methoxyphenyl)-1-methyl-3-(2,2,2-trifluoroethyl)-3,6-dihydro-pyrrolo[3,2-f]-quinolin-7-one] | < 5 nM | – |
| Cc1c(C)n(CCC(C)(C)O)c2ccc3[nH]c(=O)cc(C(F)(F)F)c3c12 [Compound 239, 3-(3-Hydroxy-3-methyl-butyl)-1,2-dimethyl-9-trifluoromethyl-3,6-dihydro-pyrrolo[3,2-f]-quinolin-7-one] | > 10 nM | – |
| O=c1cc(Cl)c2c(ccc3[nH]c4c(c32)CCCC4)[nH]1 [Compound 113, 9-Chloro-1,2-tetramethylene-3,6-dihydro-pyrrolo[3,2-f]quinolin-7-one] | > 10 nM | – |
| Cc1c(C(F)(F)F)[nH]c2ccc3[nH]c(=O)cc(Cl)c3c12 [Compound 108, 9-Chloro-1-methyl-2-trifluoromethyl-3,6-dihydro-pyrrolo[3,2-f]quinolin-7-one] | < 5 nM | – |
| Cc1c(-c2ccco2)n(C[C@H](O)C(F)(F)F)c2ccc3[nH]c(=O)cc(Cl)c3c12 [Compound 277, (S)-9-Chloro-2-(2-furyl)-1-methyl-3-(3,3,3-trifluoro-2-hydroxy-propyl)-3,6-dihydro-pyrrolo[3,2-f]quinolin-7-one] | < 5 nM | – |
| Cc1c(-c2ccc(C(F)(F)F)cc2)n(CC(F)(F)F)c2ccc3[nH]c(=O)cc(Cl)c3c12 [Compound 202, 9-Chloro-1-methyl-2-(4-trifluoromethylphenyl)-3-(2,2,2-trifluoroethyl)-3,6-dihydro-pyrrolo[3,2-f]-quinolin-7-one] | > 10 nM | – |
| CC1c2c(ccc3[nH]c(=O)cc(Cl)c23)N(Cc2ccccc2)C1C (racemic) [Compound 144, (±)-9-Chloro-1,2-dimethyl-3-phenylmethyl-1,2,3,6-tetrahydro-pyrrolo[3,2-f]quinolin-7-one] | 5 to 10 nM | – |
| CCC1c2c(ccc3[nH]c(=O)cc(Cl)c23)N(CC(F)(F)F)C1c1cccs1 (racemic) [Compound 164, (±)-9-Chloro-1-ethyl-2-(thien-2-yl)-3-(2,2,2-trifluoroethyl)-1,2,3,6-tetrahydro-pyrrolo[3,2-f]-quinolin-7-one] | < 5 nM | – |
| O=c1cc(Cl)c2c3c(ccc2[nH]1)N(CC(F)(F)F)[C@H]1CCC[C@@H]31 [Compound 163, (−)-9-Chloro-3-(2,2,2-trifluoroethyl)-1,2-trimethylene-1,2,3,6-tetrahydropyrrolo[3,2-f]-quinolin-7-one] | > 10 nM | – |
| Cc1c(-c2ccncc2)n(C[C@H](O)C(F)(F)F)c2ccc3[nH]c(=O)cc(Cl)c3c12 [Compound 273, (S)-9-Chloro-1-methyl-2-(4-pyridyl)-3-(3,3,3-trifluoro-2-hydroxy-propyl)-3,6-dihydro-pyrrolo[3,2-f]quinolin-7-one] | > 10 nM | – |
| Cc1c(C)n(C)c2ccc3[nH]c(=O)cc(Cl)c3c12 [Compound 208, 9-Chloro-1,2,3-trimethyl-3,6-dihydro-pyrrolo[3,2-f]quinolin-7-one] | 5 to 10 nM | – |
| CC1Nc2ccc3[nH]c(=O)cc(Cl)c3c2C1C (racemic) [Compound 140, (±)-9-Chloro-1,2-dimethyl-1,2,3,6-tetrahydro-pyrrolo[3,2-f]quinolin-7-one] | > 10 nM | – |
| CCC1C(C)c2c(ccc3[nH]c(=O)cc(C(F)(F)F)c23)N1CCC(F)(F)F (racemic) [Compound 180, (±)-2-Ethyl-1-methyl-9-trifluoromethyl-3-(3,3,3-trifluoropropyl)-1,2,3,6-tetrahydro-pyrrolo[3,2-f]quinolin-7-one] | < 5 nM | – |
| CC(=O)OCCn1c(C)c(C)c2c3c(C(F)(F)F)cc(=O)[nH]c3ccc21 [Compound 241, 3-(2-Acetoxyethyl)-1,2-Dimethyl-9-trifluoromethyl-3,6-dihydro-pyrrolo[3,2-f]quinolin-7-one] | 5 to 10 nM | – |

Reference: patent US8580811B2 (Ligand Pharmaceuticals Incorporated, priority 2005, dated 2013)
